Type in all cases: binding, mouse
For assay [1], the system named is panel of monoclonal antibodies (MAbs). Put plainly: Detection of imidazolinones by the panel of MAbs (EIA). As to the method: EIAs were done essentially as described by Karu et al (1994). For indirect EIAs, hapten-protein conjugates were adsorbed to wells of Immulon 2™ 96-well plates (Dynatech) in 0.1 mL of coating buffer (0.015 M Na2CO3 ― 0.035 M NaHCO3 ―0.003 M NaN3, pH 9.6). PBS-Tween containing 0.05% gelatin, 0.45 micron-filtered, was used as the diluent for antibodies and antibody-analyte mixtures, and as a blocking solution to prevent adventitious binding. The detecting antibody for the indirect EIAs was alkaline phosphatase conjugated goat anti-mouse IgG and IgM The substrate solution for color development was p-nitrophenyl phosphate 1 mg/mL, in 10% (w/v) diethanolamine-HCl, pH 9.8 ― 0.5 mM MgCl2 ― 3 mM NaN3. • 1. Indirect competition EIA. Indirect competition EIA (immobilized hapten conjugate) was used to evaluate the responses of mice, screen the MAbs, and quantify imidazolinone analytes. Optimal amounts of imidazolinone-BSA or -OVA conjugate for plate coating and dilutions for the hybridoma culture supernate or antiserum were determined by checkerboard assay. To perform the assay, wells were coated overnight at 4°C with a limiting amount of conjugate in 0.1 mL of coating buffer. Imidazolinone standards (0.5 to 5000 ppb) or unknowns were mixed with a limiting amount of antiserum or hybridoma culture fluid in the diluent and incubated overnight at 4°C in tightly sealed polypropylene tubes. The coated wells were washed and blocked with 0.2 mL of 0.05% gelatin in PBS-Tween for 30 minutes at room temperature. After another wash, aliquots (0.1 mL) of the antibody-analyte mixture were added to wells, and the remainder of the assay was performed as previously described (Karu et al., 1994). • 2. Direct competition EIA. Direct EIAs were performed by capturing the MAb on microwells and allowing the analyte to compete with a HRP-conjugated hapten for binding. Bound HRP-conjugate was then detected with a commercial HRP substrate. The sensitivity of this assay was enhanced by use of a commercial enzymatic signal amplification kit (GIBCO-BRL). Wells were coated with 200 or 500 ng of affinity-purified goat anti-mouse IgG or anti-mouse IgG Fc in the coating buffer at 4°C overnight. The next day, the wells were washed and blocked with PBS-Tween-gelatin for 30 minutes at room temperature, and then incubated for 1.5 hours at room temperature with hybridoma culture supernate. The plates were washed with PBS-Tween, and 0.1 mL of diluent containing the analyte and a limiting amount of biotinylated imidazolinone was added for 1.5 h at room temperature. The wells were washed three times with PBS-Tween, and Extravidin-alkaline phosphatase conjugate (Sigma) was then added for 30 minutes at room temperature. The plates were washed again with TBS (0.05 M Tris-HCl, pH 7.5,― 0.15 M NaCl) to remove remaining inorganic phosphate, which can inhibit the GIBCO-BRL EIA Amplification system. Substrate solution for the amplification step (0.05 mL) was added for 15 minutes at room temperature, followed by 0.05 mL of the enzymatic amplifying solution and chromogen. Color development at 492 nm was recorded. • 3. EIA Data Analysis. Color development was monitored on a Multiskan EIA reader (Flow Laboratories) interfaced with a Macintosh computer, and the rates of the reaction were calculated by linear regression. Competition EIA dose- response curves were fitted with a 4-parameter logistic equation (Karu et al., 1994).

Assay [2] addresses MAb 3A5 (VH and VL N-termini SEQ.ID NOS. 1 and 2). Put plainly: Kinetic exclusion fluoroimmunoassay (KinExA), equilibrium dissociation constant. The following applies: hapten conjugate 16-BSA, racemic hapten conjugate. As to the method: (§1) 1. Binding Kinetics. The equilibrium dissociation constants (KD) for MAbs 3A2 and 3A5 were measured by kinetic exclusion fluoroimmunoassay (KinExA) (Blake, D. A., et al. 1997. Characterization of a metal-specific monoclonal antibody. In: Immunochemical Technology for Environmental Applications (ACS Symposium Series 657), eds. DS Aga, EM Thurmann, pp. 49-60. Washington, D.C.: American Chemical Society.), and also in a Pharmacia BIAcore surface plasmon resonance instrument (Malmborg, A.-C. and Borrebaeck, C. A. K. 1995. BIAcore as a tool in antibody engineering. J. Immunol. Methods 183: 7-13.). Since the hapten conjugates used in these rate studies were racemic mixtures, the dissociation constants obtained can only be a median rate for the different chiral isomers.
(§2) The KinExA directly measures free antibody in solution equilibrium by trapping it on beads coated with hapten conjugate. […] 2. […] 4.

Assay [3] concerns the target MAb 3A2. The description is as above. As to conditions: hapten conjugate 16-BSA, racemic hapten conjugate. As to the method: as §1, §2
Assay [4] deals with MAb 3A5 (VH and VL N-termini SEQ.ID NOS. 1 and 2). Put plainly: BIAcore surface plasmon resonance, equilibrium dissociation constant. The following applies: racemic hapten conjugate. As to the method:
as §1, §2

The target of assay [5] is MAb 3A2. The assay is described as above. The following applies: racemic hapten conjugate. On the procedure:
as §1, §2

Take `CCc1cnc(C2=NC(C)(C(C)C)C(=O)N2)c(C(=O)O)c1` (stereo not shown) [imazethapyr, 5-ethyl-2-(4-isopropyl-4-methyl-5-oxo-2-imidazolin-2-yl) nicotinic acid]: the detection range in assay [1] fell in the range of 3 to 30 ng/mL. Moreover, the Kd in assay [2] was determined as 0.073 µM; on MAb 3A2 [3], 0.0114 µM; in assay [4] (hapten conjugate 16-OA), 0.0096 µM; in assay [4] (hapten conjugate 17-OA), 0.0108 µM; on MAb 3A2 [5] (hapten conjugate 16-OA), 0.0247 µM; on MAb 3A2 [5] (hapten conjugate 17-OA), 0.0516 µM.
